In PMC9194530, “Interaction of Colchicine-Site Ligands With the Blood Cell-Specific Isotype of β-Tubulin—Notable Affinity for Benzimidazoles” (Frontiers in Cell and Developmental Biology, 2022):
Where two headings read alike, the source gives them in different places.

Experiments:
[1] = molecular target: T1, Brain tubulin (BTb), colchicine site (Bos taurus, UniProt Q6B856); assay: Competition titration with MDL (fluorescence), brain tubulin; format: binding, bovine or rat
T1 construct: from tissue; host or cells: mammalian brain: either rat brain (purified in house) or bovine brain (bought from Cytoskeleton #HTS02-A or Sigma-Aldrich #T4925)

[2] = molecular target: Erythrocyte tubulin (CeTb), colchicine site (Gallus gallus, UniProt P09207); assay: biochemical; format: binding, chicken (Gallus gallus)
BTb, colchicine site = molecular target: T2, BTb, colchicine site (Bos taurus, UniProt Q6B856); assay: Single-point MDL competitive binding inhibition screen, brain tubulin; design: species or system bovine or rat; conditions: for inhibition at 50 µM: read-out: BTb % (inhibition of MDL binding)
T2 construct: from tissue; host or cells: mammalian brain: either rat brain (purified in house) or bovine brain (bought from Cytoskeleton #HTS02-A or Sigma-Aldrich #T4925)

CeTb, colchicine site = CeTb, colchicine site (Gallus gallus, UniProt P09207); assay: Single-point MDL competitive binding inhibition screen, erythrocyte tubulin; design: species or system chicken (Gallus gallus); conditions: for Kd: from single-point data (50 µM drug) fitted with single-site isotherm, Eq. 4, read-out: CeTb Kd(app)
[3] = molecular target: T3, bovine brain microtubule protein (tubulin plus microtubule-associated proteins) (Bos taurus, UniProt Q6B856); assay: GTP-induced polymerization of bovine brain microtubule protein (turbidity at 350 nm); format: biochemical; conditions: albendazole 12-60 µM, 15 µM microtubule protein, 1 mM GTP, 37 °C, 2% DMSO
T3 construct: from tissue; host or cells: bovine brain; microtubule protein purified by the method of Williams and Lee, 1982
Experimental: albendazole (ABZ). 15 µM bovine brain microtubule protein (tubulin plus microtubule-associated proteins, purified according to (Williams and Lee, 1982), in PME buffer was incubated with varying concentrations of albendazole for 40 min at room temperature.
The samples were equilibrated to 37 °C in the cell holder of a UV-Vis spectrophotometer (HP8453, Hewlett Packard, Palo Alto, CA). A baseline was recorded before adding GTP to a concentration of 1 mM to induce microtubule assembly. All samples had 2% (v/v) DMSO. The extent of polymerization was determined by the increase of turbidity as measured by the apparent absorbance at 350 nm.

BBTb = molecular target: BBTb; design: method as in Lin et al., 1989; conditions: read-out: Kd combretastatin A4, literature value; ref Lin et al., 1989; cited from earlier work
Brain tubulin (BTb) = molecular target: T4, Brain tubulin (BTb) (Bos taurus, UniProt Q6B856); assay: Inhibition of taxol-induced tubulin polymerization (absorbance at 350 nm), brain tubulin; format: biochemical, bovine or rat; conditions: tubulin 2 µM, taxol 2 µM, drugs 20 µM; polymerization with taxol alone = 100%
T4 construct: from tissue; host or cells: mammalian brain: either rat brain (purified in house) or bovine brain (bought from Cytoskeleton #HTS02-A or Sigma-Aldrich #T4925)
Experimental: (§1) Tubulin was polymerized at a concentration of 2 µM in PM buffer (0.1 M Pipes pH 7, 1 mM MgCl2) + 0.1 mM GTP in a volume of 60 µL. The reaction mixture was transferred to a 10-mm pathlength microcuvette (Hellma United States Inc., Plainview, NY) and placed in the cuvette holder of a SpectraMax M2 Multimode Microplate Reader (Molecular Devices, San Jose, CA) equipped with temperature control set at 37°C for these experiments. Drugs at 20 µM were added directly to the polymerization mixture and incubated for 15 min previous to starting the recordings. Tubulin polymerization kinetics was followed by recording the absorbance at 350 nm. After recording the baseline, tubulin polymerization was induced by the addition of 2 µM paclitaxel (taxol). The final concentration of DMSO in the mixtures was 4%–5% v/v.
(§2) FIGURE 2 Inhibition of tubulin polymerization by colchicine-site drugs. Tubulin from brain (A) or from erythrocytes (B) was incubated at 2 µM in polymerization buffer at 37°C, and the absorbance at 350 nm was registered for 10 min prior to starting the polymerization by the addition of taxol 2 µM (arrow). Drugs were included in polymerization buffer and used at a concentration of 20 µM.

[4] = molecular target: Erythrocyte tubulin (CeTb) (Gallus gallus, UniProt P09207); assay: Inhibition of taxol-induced tubulin polymerization (absorbance at 350 nm), erythrocyte tubulin; format: biochemical, chicken (Gallus gallus)
Experimental: as §1, §2

[5] = molecular target: Chicken brain tubulin (CBTb); assay: MDL fluorescence dilution titration, chicken brain tubulin; format: binding; conditions: 1 µM tubulin, PM buffer, 5% DMSO, 25°C; ± standard error of fit
Rat brain tubulin (RBTb) = molecular target: T5, Rat brain tubulin (RBTb) (Rattus norvegicus, UniProt Q3KRE8); assay: MDL fluorescence dilution titration, rat brain tubulin; format: binding; conditions: 1 µM tubulin, PM buffer, 5% DMSO, 25°C; ± standard error of fit
T5 construct: Rat brain tubulin was purified from microtubule protein previously extracted from frozen rat brains; from tissue; host or cells: frozen rat brains; tubulin purified in house from microtubule protein

[6] = molecular target: T6, Bovine brain tubulin (BBTb) (Bos taurus, UniProt Q6B856); assay: MDL fluorescence dilution titration, bovine brain tubulin; format: binding; conditions: 1 µM tubulin, PM buffer, 5% DMSO, 25°C; ± standard error of fit
T6 construct: purchased Cytoskeleton, Inc. or Sigma-Aldrich #HTS02-A or #T4925; host or cells: bovine brain

[7] = molecular target: Chicken erythrocyte tubulin (CeTb) (Gallus gallus, UniProt P09207); assay: MDL fluorescence dilution titration, chicken erythrocyte tubulin; format: binding
BTb = molecular target: BTb; design: method as in Head et al., 1985; conditions: read-out: Kd nocodazole, published value; ref Head et al., 1985; cited from earlier work
rat brain tubulin = molecular target: rat brain tubulin; design: method as in Cortese et al., 1977; conditions: tritiated podophyllotoxin, ref Cortese et al., 1977, read-out: Kd podophyllotoxin, literature value; cited from earlier work
[8] = competition titration, 1 µM tubulin, 5 µM MDL
[9] = competition titration, 1 µM tubulin, 5 µM MDL, calculated with Equation 4, read-out: Erythrocyte tubulin (CeTb) Kd
[10] = summary of competition titrations with MDL, read-out: Erythrocyte tubulin (CeTb) Kd (Table 4, selected drugs)
[11] = 50 µM drug, 1 µM tubulin, 5 µM MDL, single point
[12] = tubulin 2 µM, taxol 2 µM, drugs 20 µM, polymerization with taxol alone = 100%

## CCCSc1ccc2nc(NC(=O)OC)[nH]c2c1 [Albendazole]
[1]; competition titration, 1 µM tubulin, 5 µM MDL, calculated with Equation 4, nb = no binding detected
  Brain tubulin (BTb) Kd: nb
[1]; competition titration, 1 µM tubulin, 5 µM MDL, calculated with Equation 4, nb = no binding detected, listed as albendazole
  Brain tubulin (BTb) Kd: no detectable binding
[1]; competition titration, 1 µM tubulin, 5 µM MDL, nb = no binding detected
  Brain tubulin (BTb) IC50: nb
[2]; [8]
  IC50: 104 ± 12 µM
[2]; [9]
  Kd: 35 ± 4 µM
[2]; [10]
  Kd: 35 µM
BTb, colchicine site
  BTb % (inhibition of MDL binding): <1%
CeTb, colchicine site; [11]
  CeTb % (inhibition of MDL binding): 35%
CeTb, colchicine site
  Kd: 31 µM
[3]
  inhibition of polymerization of BTb: little or no inhibition
[3]; listed as albendazole (ABZ)
  inhibition of polymerization of BTb: not significantly inhibited

## COc1ccc(/C=C\c2cc(OC)c(OC)c(OC)c2)cc1O [Combretastatin A4, cis-Combretastatin A4]
BTb, colchicine site
  inhibition at 50 µM: 92%
CeTb, colchicine site
  CeTb % (inhibition of MDL binding): 64%
BBTb
  Kd: 0.12 µM

## COc1ccc(OC)c(C(=O)/C(C)=C/c2ccc(N(C)C)cc2)c1 [MDL, (E)-1-(2,5-dimethoxyphenyl)-3-[4-(dimethylamino)phenyl]-2-methylprop-2-en-1-one]
Brain tubulin (BTb)
  Brain tubulin (BTb) % inhibition at 60 min: 64%
[4]; [12]
  Erythrocyte tubulin (CeTb) % inhibition at 30 min: 38%
[5]
  Kd: 0.51 ± 0.079 µM
Rat brain tubulin (RBTb)
  Kd: 0.45 ± 0.046 µM
[6]
  Kd: 0.54 ± 0.082 µM
[7]; 1 µM tubulin, PM buffer, 5% DMSO, 25°C, ± standard error of fit, read-out: Kd,MDL, chicken erythrocytes (CeTb)
  Kd: 2.6 ± 0.24 µM
[7]; direct MDL titration
  MDL affinity for CeTb, fold weaker than to brain tubulins: ~5 fold
  Ratio: Kd of MDL and CeTb divided by Kd of MDL and BBTb: 5

## COC(=O)Nc1nc2ccc(C(=O)c3ccccc3)cc2[nH]1 [Mebendazole]
Brain tubulin (BTb)
  Brain tubulin (BTb) % inhibition at 60 min: 92%
[4]; [12]
  Erythrocyte tubulin (CeTb) % inhibition at 30 min: 25%
[1]; competition titration, 1 µM tubulin, 5 µM MDL, calculated with Equation 4, nb = no binding detected, read-out: Brain tubulin (BTb) Kd
  Kd: 1.3 ± 0.23 µM
[1]; competition titration, 1 µM tubulin, 5 µM MDL, nb = no binding detected, read-out: Brain tubulin (BTb) IC50
  IC50: 14 ± 2.5 µM
[2]; [8]
  IC50: 6.8 ± 0.73 µM
[2]; [9]
  Kd: 2.3 ± 0.25 µM
[2]; ratio >1 = weaker binding to CeTb
  Ratio: Kd of the drug and CeTb divided by the Kd of the drug and BBTb: 1.9
[2]; [10]
  Kd: 2.6 µM
BTb, colchicine site; [11]
  inhibition at 50 µM: 82%
BTb, colchicine site; from single-point data (50 µM drug) fitted with single-site isotherm, Eq. 4, read-out: BTb Kd(app)
  Kd: 1 µM
CeTb, colchicine site; [11]
  CeTb % (inhibition of MDL binding): 90%
CeTb, colchicine site
  Kd: 1.8 µM

## COC(=O)Nc1nc2ccc(C(=O)c3cccs3)cc2[nH]1 [Nocodazole]
Brain tubulin (BTb)
  Brain tubulin (BTb) % inhibition at 60 min: 55%
[4]
  Erythrocyte tubulin (CeTb) % inhibition at 30 min: 90%
BTb, colchicine site
  inhibition at 50 µM: 85%
CeTb, colchicine site
  CeTb % (inhibition of MDL binding): 96%
BTb
  Kd: 2.5 µM

## COc1cc([C@@H]2c3cc4c(cc3[C@H](O)[C@H]3COC(=O)[C@H]23)OCO4)cc(OC)c1OC [Podophyllotoxin]
Brain tubulin (BTb)
  Brain tubulin (BTb) % inhibition at 60 min: 90%
[4]; [12]
  Erythrocyte tubulin (CeTb) % inhibition at 30 min: 95%
[1]
  IC50: 4 ± 1 µM
[1]; Brain tubulin (BTb) Kd
  Kd: 0.37 ± 0.035 µM
[1]; Brain tubulin (BTb) Kd (Table 4, selected drugs)
  Kd: 0.37 µM
[2]
  Ratio: Kd of the drug and CeTb divided by the Kd of the drug and BBTb: 13
[2]; [8]
  IC50: 15 ± 0.53 µM
[2]; [9]
  Kd: 4.9 ± 0.18 µM
[2]; [10]
  Kd: 4.9 µM
BTb, colchicine site
  Kd: 0.73 µM
  inhibition at 50 µM: 90%
CeTb, colchicine site; 50 µM drug, 1 µM tubulin, 5 µM MDL, single point, read-out: CeTb % (inhibition of MDL binding)
  inhibition at 50 µM: 81%
Rat brain tubulin
  Kd: 0.55 µM
